# Literature values as cited in patent US9937198B2, “Multi-functional composition and preparation method and application thereof” (Suzhou Sciscape Bio-Pharmaceutical Technology Co., Ltd., priority 2013, dated 2018).
# Legend:
# rats = details: cited from earlier work
# [1] = system: bees and other beneficial insects; details: in vivo; cited from earlier work
# [2] = pure validamycin A; cited from earlier work
structure (smiles),measurement,setting,value
"OCC1=C[C@@H](N[C@H]2C[C@H](CO)[C@@H](O[C@H]3O[C@@H](CO)[C@H](O)[C@@H](O)[C@@H]3O)[C@H](O)[C@H]2O)[C@H](O)[C@@H](O)[C@@H]1O [Validamycin A, validamycin A]",acute oral toxicity (LD50) in rats,rats,above 20 g/kg
same,toxicity to bees and other beneficial insects,[1],no toxicity
same,solubility in water,[2],soluble in water
